# Assay results: patent publication US11958868B2, “Methods of using metal complexes to promote wound healing” (University of Macau, priority 2022, dated 2024)
# Target: T1, human recombinant VHL:ElonginB:ElonginC (VBC) complex (Homo sapiens, UniProt P40337)
# T1 construct: made in house
# Assay: Fluorescence-based protein thermal shift assay (FTS) of VBC
# Format: binding
# Conditions: 100 μM
# Procedure: HEK293 cells were treated with vehicle DMSO (1% for 2 h), 1a (0.3, 1, 3, 6 and 9 μM for 2 h), VH298 (100 μM for 2 h), MG132 (20 μM for 3 h), or FG-4592 (100 μM for 2 h) before lysis. Cell lysates were collected and incubated with VHL antibody overnight at 4° C. The proteins were immunoprecipitated using agarose beads. The levels of hydroxy-HIF-1α co-precipitated with VHL were detected using a hydroxy-HIF-1α antibody, and then visualized using ECL Western Blotting Detection Reagent (GE Healthcare). (B) Cellular thermal shift assays to monitor cellular target engagement of VHL and HIF-1α. HEK293 cell lysates were treated with 1a (3 μM) at room temperature for 30 min and then heated at different temperature ranging from 48° C. to 68° C. for 5 min. The protein samples were collected and detected by Western blotting using either VHL or PHD2 antibodies. (C) Fluorescence-based protein thermal shift assay of VBC in the presence or absence of VH298 (100 μM) and complex 1a (100 μM). […] Data are expressed as means±SD (n=3 independent experiments for figures a and b, samples for figures c and e), P values were calculated using a two-sided t-test. *P<0.05, **P<0.01 vs. DMSO group.
# After incubating HEK293 cell lysates with complex 1a followed by heating to set temperatures, VHL and PHD2 levels in the soluble fraction were quantitated by Western blotting.
# T1 sequence (P40337 whole entry): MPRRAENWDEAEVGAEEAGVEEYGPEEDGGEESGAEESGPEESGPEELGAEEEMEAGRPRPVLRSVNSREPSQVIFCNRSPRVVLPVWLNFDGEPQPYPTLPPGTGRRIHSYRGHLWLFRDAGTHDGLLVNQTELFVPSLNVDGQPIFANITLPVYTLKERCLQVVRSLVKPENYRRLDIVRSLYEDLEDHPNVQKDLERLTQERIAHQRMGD
# T1 sequence (Q15370 whole entry partner): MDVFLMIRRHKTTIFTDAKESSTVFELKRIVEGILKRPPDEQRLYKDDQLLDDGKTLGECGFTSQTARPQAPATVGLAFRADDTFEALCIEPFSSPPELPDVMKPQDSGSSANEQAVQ
# T1 sequence (Q15369 whole entry partner): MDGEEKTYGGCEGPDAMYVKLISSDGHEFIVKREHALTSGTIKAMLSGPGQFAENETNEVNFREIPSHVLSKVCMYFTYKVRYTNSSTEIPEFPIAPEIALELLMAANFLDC
row,Structure (SMILES),Shift of the melting curve of purified VBC (FTS)
1,"Cc1ncsc1-c1ccc(CNC(=O)[C@@H]2C[C@@H](O)CN2C(=O)[C@@H](NC(=O)C2(C#N)CC2)C(C)(C)C)cc1 [VH298, reference compound]",ca. 5.0 °C

# Target: VHL (Homo sapiens, UniProt P40337)
# Assay: Binding affinity to VHL compared with VH298
# Conditions: VH298 vs complex 1a
# Chain of VHL (P40337 whole entry): as the sequence (P40337 whole entry) above
# Chain of VHL (Q15370 whole entry partner): as the sequence (Q15370 whole entry partner) above
# Chain of VHL (Q15369 whole entry partner): as the sequence (Q15369 whole entry partner) above
row,Structure (SMILES),"Binding affinity to VHL, stronger than complex 1a"
1,"Cc1ncsc1-c1ccc(CNC(=O)[C@@H]2C[C@@H](O)CN2C(=O)[C@@H](NC(=O)C2(C#N)CC2)C(C)(C)C)cc1 [VH298, reference compound]",ca. 100 fold

# System: HIF-1α activation of the HRE-driven reporter
# Assay: Dual luciferase reporter assay (HRE-driven luciferase activity)
# Format: cell-based, Human
# Conditions: HEK293 cells
# Procedure: A library of cyclometalated Ir(III)/Rh(III) metal complexes 1-14 (as racemates) with diverse structures were selected for initial screening, in order to identify favorable substructures for the design of the next round of complexes (FIG. 1a). In cells, HIF-1α moves into the nucleus and binds to the hypoxia-response element (HRE) in the promoters of transactivated genes. In this study, the dual luciferase reporter assay (DLR) was performed to monitor the variations of HRE-driven luciferase activity induced by the complexes (FIG. 1f). Human embryonic kidney HEK293 cells were treated with complexes (10 μM) for 8 h, and the HRE-driven luciferase activity of the cell lysates was determined. Complexes that inhibit the interaction between VHL and HIF-1α would be expected to increase the level of HRE-driven luciferase activity in the cell lysates.
# HEK293 cells were seeded in six well plates 24 h before transfection. HRE-luciferase plasmid (4 μg) and pRL-TK plasmid (4 μg) and TurboFect reagent (6 μL) were mixed together in serum-free DMEM medium and the resulting solution was incubated for 20 min at room temperature. The mixture was the added dropwise to the HEK293 cells in the wells. The cells were incubated for 32 h at 37° C. in a CO2 incubator before use.
# The inhibition of HIF-1α activity was assayed by a reporter assay using a dual luciferase reporter assay system (Promega, Madison, WI, USA). Transiently transfected cells were treated with complexes or P1 for 8 h before measurement. Luciferase activity was integrated over a 10 second period and measured using a spectrophotometer (Spectra-max M5, Molecular Devices, USA). The results were standardization with the activity of Renilla luciferase. All data are expressed as means±SD.
row,Structure (SMILES),Effect of isolated ligands on HRE-driven luciferase activity
1,"Brc1ccc(-c2ccccn2)cc1 [brpy, 2-(4-bromophenyl)pyridine]",neither brpy nor dmeophen had any significant effect
2,"COc1ccnc2c1ccc1c(OC)ccnc12 [dmeophen, 4,7-dimethoxy-1,10-phenanthroline]",neither brpy nor dmeophen had any significant effect

# Same assay, conditions: HEK293 cells, 8 h
row,Structure (SMILES),HRE-driven luciferase activity compared to positive control P1 (and parent complex 1)
1,COc1cc[n+]2c3c1ccc1c(OC)cc[n+](c13)[Rh-3]213([c]2cc(Br)ccc2-c2cccc[n+]21)[c]1cc(Br)ccc1-c1cccc[n+]13.F[P-](F)(F)(F)(F)F [compound 1],"slightly higher activity compared to the positive control compound, P1"

# Same assay, conditions: HEK293 cells, 8 h; complexes 1a-1n; ranking and comparison in words
row,Structure (SMILES),"HRE-driven luciferase activity, second round of screening"
1,Brc1ccc2[c](c1)[Rh-3]13([c]4cc(Br)ccc4-c4cccc[n+]41)([n+]1ccccc1-2)[n+]1cccc2ccc4ccc[n+]3c4c21.F[P-](F)(F)(F)(F)F [1i],drastically reduced activity
2,COc1cc[n+]2c3c1ccc1c(OC)cc[n+](c13)[Ir-3]213([c]2cc(Br)ccc2-c2cccc[n+]21)[c]1cc(Br)ccc1-c1cccc[n+]13.F[P-](F)(F)(F)(F)F [1c],drastically reduced activity
3,Brc1ccc2[c](c1)[Ir-3]13([c]4cc(Br)ccc4-c4cccc[n+]41)([n+]1ccccc1-2)[n+]1cccc2ccc4ccc[n+]3c4c21.F[P-](F)(F)(F)(F)F [1j],drastically reduced activity
4,Brc1ccc2[c](c1)[Rh-3]13([c]4cc(Br)ccc4-c4cccc[n+]41)([n+]1ccccc1-2)[n+]1ccc(-c2ccccc2)c2ccc4c(-c5ccccc5)cc[n+]3c4c21.F[P-](F)(F)(F)(F)F [1m],drastically reduced activity
5,Brc1ccc2[c](c1)[Ir-3]13([c]4cc(Br)ccc4-c4cccc[n+]41)([n+]1ccccc1-2)[n+]1ccc(Br)c2ccc4c(Br)cc[n+]3c4c21.F[P-](F)(F)(F)(F)F [1l],drastically reduced activity
6,COc1cc[n+]2c(c1)-c1cc(OC)cc[n+]1[Ir-3]213([c]2cc(Br)ccc2-c2cccc[n+]21)[c]1cc(Br)ccc1-c1cccc[n+]13.F[P-](F)(F)(F)(F)F [1h],led to a decrease in activity
7,Brc1ccc2[c](c1)[Ir-3]13([c]4cc(Br)ccc4-c4cccc[n+]41)([n+]1ccccc1-2)[n+]1ccc(-c2ccccc2)c2ccc4c(-c5ccccc5)cc[n+]3c4c21.F[P-](F)(F)(F)(F)F [1n],drastically reduced activity
8,COc1cc[n+]2c3c1ccc1c(OC)cc[n+](c13)[Rh-3]213([c]2ccccc2-c2cccc[n+]21)[c]1ccccc1-c1cccc[n+]13.F[P-](F)(F)(F)(F)F [1b],substantially more active than the Rh(III) congener 1b
9,COc1cc[n+]2c3c1ccc1c(OC)cc[n+](c13)[Ir-3]213([c]2cc(C)ccc2-c2cccc[n+]21)[c]1cc(C)ccc1-c1cccc[n+]13.F[P-](F)(F)(F)(F)F [1g],second-most potent compound
10,COc1cc[n+]2c3c1ccc1c(OC)cc[n+](c13)[Ir-3]213([c]2ccccc2-c2c(C)ccc[n+]21)[c]1ccccc1-c1c(C)ccc[n+]13.F[P-](F)(F)(F)(F)F [1e],substantially weakens the activity of the complex
11,Brc1ccc2[c](c1)[Rh-3]13([c]4cc(Br)ccc4-c4cccc[n+]41)([n+]1ccccc1-2)[n+]1ccc(Br)c2ccc4c(Br)cc[n+]3c4c21.F[P-](F)(F)(F)(F)F [1k],drastically reduced activity

# Same assay, conditions: HEK293 cells, complexes 10 μM, 8 h; complexes 1-14; ranking in words
row,Structure (SMILES),"HRE-driven luciferase activity (HIF-1α transcriptional activity), first round of screening"
1,COc1cc[n+]2c3c1ccc1c(OC)cc[n+](c13)[Rh-3]213([c]2cc(Br)ccc2-c2cccc[n+]21)[c]1cc(Br)ccc1-c1cccc[n+]13.F[P-](F)(F)(F)(F)F [compound 1],highest activation of HIF-1α transcriptional activity
2,F[P-](F)(F)(F)(F)F.O=[N+]([O-])c1cc2ccc[n+]3c2c2c1ccc[n+]2[Ir-3]312([c]3cc(F)cc(F)c3-c3cccc[n+]31)[c]1cc(F)cc(F)c1-c1cccc[n+]12 [compound 9],low activity
3,CCc1ccc2[c](c1)[Rh-3]13([c]4cc(CC)ccc4-c4ccc5ccccc5[n+]41)([n+]1ccc(OC)cc1-c1cc(OC)cc[n+]13)[n+]1c-2ccc2ccccc21.F[P-](F)(F)(F)(F)F [compound 6],low activity
4,COC(=O)c1cc[n+]2c(c1)-c1cc(C(=O)OC)cc[n+]1[Rh-3]213([c]2ccccc2-c2ccc4ccccc4[n+]21)[c]1ccccc1-c1ccc2ccccc2[n+]13.F[P-](F)(F)(F)(F)F [compound 7],low activity
5,CCc1ccc2[c](c1)[Rh-3]13([c]4cc(CC)ccc4-c4cccc[n+]41)([n+]1ccccc1-2)[n+]1ccc(-c2ccccc2)c2ccc4c(-c5ccccc5)cc[n+]3c4c21.F[P-](F)(F)(F)(F)F [compound 5],next most potent candidate

# System: HIF-1α levels in A498 (VHL-null) cells
# Assay: HIF-1α accumulation in VHL-null A498 cells
# Format: cell-based
# Conditions: 1a 3 μM, VH298 100 μM, 2 h
# Procedure: FIG. 3 depicts the effect of complex 1a on HIF-1α target gene products in cellulo. (A) Effect of complex 1a on specific proteins (GLUT1, VEGF, and EPO) mediated by HIF-1α in HEK293 cells. HEK293 cells were treated with 1a for 2 h. Cell lysis were collected and analyzed by the Western blotting. (B) Complex 1a has no effect on HIF-1α accumulation in a VHL null cancer cell line. A498 (VHL-null), or HEK293 cells were treated with 1% DMSO, 1a (3 μM), VH298 (100 μM), and FG-4592 (100 μM) for 2 h before lysis. (C) Effect of complex 1a on EPO, GLUT1, and VEGF levels in HEK293 cells with or without HIF-1α knockdown. Left: The expression levels of EPO, GLUT1, and VEGF in HEK293 cells with or without knockdown HIF-1α in the presence or absence of 1a. Right: Densitometry analysis of EPO, GLUT1, and VEGF levels on the Western blot. HIF-1α siRNA [sense, 5′-[…]-3′ (SEQ ID NO:1), antisense, 5′-[…]-3′ (SEQ ID NO:2)]. Negative control (NC) siRNA [sense, 5′-[…]-3′ (SEQ ID NO:3), antisense, 5′-[…]-3′ (SEQ ID NO:4)]. Data are expressed as means±SD (n=3 independent experiments), P values were calculated using a two-sided t-test. #P<0.05, P<0.01 HIF-1α siRNA vs. NC siRNA, *P<0.05, **P<0.01 1a vs. vehicle/DMSO group, respectively. […]
row,Structure (SMILES),HIF-1α levels in A498 cells
1,"Cc1ncsc1-c1ccc(CNC(=O)[C@@H]2C[C@@H](O)CN2C(=O)[C@@H](NC(=O)C2(C#N)CC2)C(C)(C)C)cc1 [VH298, reference compound]",no increase in HIF-1α levels
